We go through 1 molecule from ChEMBL document CHEMBL4680194, “Synthesis and biological evaluation of 1,2,4-triazole derivatives as potential neuroprotectant against ischemic brain injury” (Eur J Med Chem, 2020).

Activity calls are given as the source filed them. The rule behind the calls is not given here.

Series [1] concerns the target T1, Nuclear factor erythroid 2-related factor 2 (Rattus norvegicus) (UniProt O54968).
T1 sequence (whole entry): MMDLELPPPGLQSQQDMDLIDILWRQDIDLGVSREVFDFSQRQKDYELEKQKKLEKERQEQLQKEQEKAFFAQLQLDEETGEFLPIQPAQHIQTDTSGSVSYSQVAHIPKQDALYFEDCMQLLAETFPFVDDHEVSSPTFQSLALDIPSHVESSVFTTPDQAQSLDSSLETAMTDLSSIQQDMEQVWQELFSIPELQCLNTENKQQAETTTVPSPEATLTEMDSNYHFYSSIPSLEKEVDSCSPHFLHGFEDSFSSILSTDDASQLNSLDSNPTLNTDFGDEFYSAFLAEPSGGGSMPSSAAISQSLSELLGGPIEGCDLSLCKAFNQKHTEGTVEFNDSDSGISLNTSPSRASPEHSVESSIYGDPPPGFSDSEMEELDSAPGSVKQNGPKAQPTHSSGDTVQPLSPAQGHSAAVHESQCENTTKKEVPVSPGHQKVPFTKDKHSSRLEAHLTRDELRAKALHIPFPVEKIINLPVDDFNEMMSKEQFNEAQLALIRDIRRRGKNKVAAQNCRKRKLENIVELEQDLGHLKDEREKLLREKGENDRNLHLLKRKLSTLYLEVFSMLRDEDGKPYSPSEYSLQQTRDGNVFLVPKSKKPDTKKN
The series can be described thus: Induction of Nrf2 nuclear translocation in rat PC-12 cells assessed as H2O2-induced SOD level at 2.5 uM incubated for 1 hr followed by H2O2 stimulation and measured after 5 hrs (reference value: 29.69 +/- 1.65 U/mg). Format: cell-based. Conditions: time 6.0 hrs.

A short description of series [2]: Toxicity in […] assessed as body weight at 400 mg/kg, ip measured on day 1 (reference value: 24.4 to 28.4 g). Conditions: in vivo, 24 h, time 1 day. In kind it is organism-based.
In series [3] the target is T1, Nuclear factor erythroid 2-related factor 2 (Rattus norvegicus). Nature of the series: Induction of Nrf2 nuclear translocation in rat PC-12 cells assessed as H2O2-induced SOD level at 10 uM incubated for 1 hr followed by H2O2 stimulation and measured after 5 hrs (reference value: 29.69 +/- 1.65 U/mg). As to conditions: time 6.0 hrs. Format: cell-based.
The target is the same in series [4]. The series can be described thus: Induction of Nrf2 nuclear translocation in rat PC-12 cells assessed as increase in nuclear Nrf2 level at 1.25 to 5 uM incubated for 24 hrs by Western blot analysis. Format: cell-based. As to conditions: dose 1.25-5 µM. On the technique in general: Immunoblotting shows a protein as a band on a membrane.
In series [5] the test system is PC-12. The series can be described thus: Cytoprotective activity against H2O2-induced cell death in rat PC12 cells assessed as increase in cell viability at 10 uM incubated for 1 hr followed by H2O2 stimulation and measured after 5 hrs in presence of LY294002 by MTT assay. Format: functional, cell-based. Conditions: time 6.0 hrs.
Series [6] is described as follows: Metal chelating activity of the compound assessed as Fe2+-compound complex formation incubated for 10 mins in presence of ferrozine by UV-visible spectrophotometry. Conditions: read-out: IC50.
In series [7] the test system is Rattus norvegicus. Nature of the series: Neuroprotective activity in Sprague-Dawley rat model of middle cerebral artery occlusion-induced ischemic injury assessed as increase in MDA level at 3 to 30 mg/kg, ip administered TID and measured after 24 hrs by ELISA. In kind it is functional, organism-based. Conditions: dose 3-30 mg/kg. Background: ELISA stands for enzyme-linked immunosorbent assay.

Series [8] has as its target T1, Nuclear factor erythroid 2-related factor 2 (Rattus norvegicus). The series can be described thus: Induction of Nrf2 nuclear translocation in rat PC-12 cells assessed as SNP-induced GSH level at 2.5 uM incubated for 1 hr followed by SNP stimulation and measured after 24 hrs (reference value: 75.78 +/- 1.74 nM/mg). As to conditions: time 25.0 hrs. In kind it is cell-based.

Series [9] has the same target. Nature of the series: Induction of Nrf2 nuclear translocation in rat PC-12 cells assessed as SNP-induced GSH-px level at 10 uM incubated for 1 hr followed by SNP stimulation and measured after 24 hrs (reference value: 37.70 +/- 2.88 mU/mg). Conditions: time 25.0 hrs. Format: cell-based.
Series [10] in a line: MRT in Sprague-Dawley rat at 20 mg/kg, po measured upto 24 hrs by LC-MS/MS analysis. Format: ADME, organism-based. As to conditions: in vivo.
The test system of series [11] is PC-12. Nature of the series: Inhibition of H2O2-induced apoptosis in rat PC-12 cells assessed as reduction in condensed nuclei incubated for 1 hr followed by H2O2 stimulation and measured after 5 hrs by Hoechst 33258 staining based fluorescence microscopy. Format: functional, cell-based. As to conditions: dose 2.5-10 µM, time 6.0 hrs.
Series [12] concerns PC-12. Nature of the series: Reversal of LY294002-induced Nrf2 inhibition in rat PC-12 cells at 1.25 to 5 uM incubated for 1 hr followed by LY294002 stimulation and measured after 24 hrs by Western blot analysis. Format: functional, cell-based. As to conditions: dose 1.25-5 µM, time 25.0 hrs.
The nature of series [13]: Toxicity in […] assessed as organism death at 400 mg/kg, ip observed for 7 day. In kind it is organism-based. Conditions: in vivo.
Series [14] in a line: Tmax in Sprague-Dawley rat at 2 mg/kg, iv measured upto 24 hrs by LC-MS/MS analysis. Format: ADME, organism-based. Conditions: in vivo.
The target in series [15] is T1, Nuclear factor erythroid 2-related factor 2 (Rattus norvegicus). Nature of the series: Induction of Nrf2 nuclear translocation in rat PC-12 cells assessed as H2O2-induced GSH level at 10 uM incubated for 1 hr followed by H2O2 stimulation and measured after 5 hrs (reference value: 65.52 +/- 1.44 nM/mg). In kind it is cell-based. As to conditions: time 6.0 hrs.
Series [16] relates to PC-12. Nature of the series: Antioxidant activity in rat PC-12 cells assessed as reduction in SNP-induced ROS level incubated for 1 hr followed by SNP stimulation and measured after 24 hrs by DCFH-DA staining based fluorescence microscopy. Format: functional, cell-based. Conditions: dose 2.5-10 µM, time 25.0 hrs.
Series [17] concerns Rattus norvegicus. Nature of the series: Neuroprotective activity in Sprague-Dawley rat model of middle cerebral artery occlusion-induced ischemic injury assessed as infarction volume at 30 mg/kg, ip administered TID and measured after 6 hrs by TTC staining based assay (reference value: 28.67 +/- 2.90 %). In kind it is functional.
Series [18] concerns the target T1, Nuclear factor erythroid 2-related factor 2 (Rattus norvegicus). Nature of the series: Induction of Nrf2 nuclear translocation in rat PC-12 cells assessed as SNP-induced GSH level at 5 uM incubated for 1 hr followed by SNP stimulation and measured after 24 hrs (reference value: 75.78 +/- 1.74 nM/mg). As to conditions: time 25.0 hrs. In kind it is cell-based.
Series [19] has the same target. The series can be described thus: Induction of Nrf2 nuclear translocation in rat PC-12 cells assessed as H2O2-induced GSH-px level at 5 uM incubated for 1 hr followed by H2O2 stimulation and measured after 5 hrs (reference value: 45.92 +/- 3.64 mU/mg). Format: cell-based. Conditions: time 6.0 hrs.
Series [20] is described as follows: Clearance in Sprague-Dawley rat at 2 mg/kg, iv measured upto 24 hrs by LC-MS/MS analysis. Format: ADME, organism-based. As to conditions: in vivo.

In the case of `COc1ccc(-c2nc(-c3ccccc3O)n(-c3ccc(S(N)(=O)=O)cc3)n2)c(O)c1`, the Activity in series [1] came to 36.3 U/mg; in series [2] it was 24.3 g; in series [3], 41.2 U/mg; in series [8], 79.1 nM/mg; in series [9] it was 52.8 mU/mg; in series [15], 80.6 nM/mg. Besides, the results for the Activity (with Rattus norvegicus [17]; in series [18]; in series [19]) were 18.06%, 86.7 nM/mg and 65.2 mU/mg, respectively. Besides, the outcome (in series [4]; with Rattus norvegicus [7]; in the series with PC-12 [12]) was Active. Moreover, the outcome in the series on PC-12 [5] was inactive. Also, in [6], the IC50 (as a rule, the concentration that inhibits the measured activity by half) is 36.3 µM. For the same molecule, the MRT (commonly the average time that molecules of a dose stay in the body) in series [10] was 6.32 h. For the same molecule, the inhibition entry in the series with PC-12 [11] and in the series with PC-12 [16] was “Dose-dependent effect” in each case. Besides, the LD50 – broadly, the dose expected to kill half of the subjects tested – at 168 h in series [13] amounted to 400 mg/kg. For the same molecule, the Tmax (usually the time from dosing to the highest level) in series [14] worked out at 4.98 min. Also, the clearance (in general, the volume of plasma or blood freed of the substance per unit of time) in [20] came out at 15 mL/min/kg.
